# System: Macrophages (RAW 264.7)
# Assay: Macrophage polarization on the substrate with inhibitors of ROCK, myosin II or actin polymerization
# Assay type: cell-based
# Conditions: 50 μM Y27632, 10 blebbistatin, 2 μg/mL cytochalasin D; for M1 polarization suppression of macrophages (CD68): M1 medium, 36 hours, bimodal switching "ON" state; for stimulation of robust adhesion (cell area, elongation factor) and expression of M2 polarization (Arg-1 expression): M2 medium, inhibitor treated
# Experimental: M1 medium used for assessment of the phenotypic polarization of macrophages was prepared by using a basal medium with 10 ng/mL each of lipopolysaccharide (LPS) and recombinant interferon-gamma (IFN-γ). M2 medium was prepared by using a basal medium with 20 ng/mL each of interleukin-4 (IL4) and interleukin-13 (IL-13). The adhesion-assisted M2 phenotypic polarization of the macrophages was assessed with inhibitors of ROCK (50 μM Y27632), myosin II (10 blebbistatin), or actin polymerization (2 μg/mL of cytochalasin D).
# An upper part of FIG. 19 is a confocal immunofluorescent image of CD68, F-actin, and nuclei in macrophages cultured in an M1 polarization medium with and without an inhibitor for ROCK (Y27632), myosin II (blebbistatin), or actin polymerization (cytochalasin D) for 36 hours against and a graph illustrating a cell area, a cell elongation factor, and CD68 fluorescence intensity calculated based on a confocal immunofluorescent experiment result, and a lower part of FIG. 19 is a confocal immunofluorescent image of Arg-1, and F-actin, and nuclei in macrophages cultured in an M2 polarization medium with and without an inhibitor for ROCK (Y27632), myosin II (blebbistatin), or actin polymerization (cytochalasin D) and a graph illustrating a cell area, a cell elongation factor, and Arg-1 fluorescence intensity calculated based on the confocal immunofluorescent experiment result, and a scale bar represents 20 μm.
SMILES,M1 polarization suppression of macrophages (CD68),"stimulation of robust adhesion (cell area, elongation factor) and expression of M2 polarization (Arg-1 expression)"
"C[C@@H](N)[C@H]1CC[C@H](C(=O)Nc2ccncc2)CC1 [Example Y27632, Y27632]",continuously hindered,hindered
Cc1ccc2c(c1)C(=O)C1(O)CCN(c3ccccc3)C1=N2 (stereo not drawn) [blebbistatin],continuously hindered,hindered
C=C1[C@@H](C)[C@H]2[C@H](Cc3ccccc3)NC(=O)[C@]23[C@H](OC(C)=O)/C=C/[C@@](C)(O)C(=O)[C@@H](C)C/C=C/[C@H]3[C@@H]1O [cytochalasin D],continuously hindered,hindered
